This note sets out measurements from patent US10213428B2, “(4-((3R,4R)-3-methoxytetrahydro-pyran-4-ylamino)piperidin-1-yl)(5-methyl-6-(((2R,6S)-6-(p-tolyl)tetrahydro-2H-pyran-2-yl)methylamino)pyrimidin-4-yl)methanone citrate” (Centrexion Therapeutics Corporation, priority 2015, dated 2019).

A short description of data set [1]: In vitro plasma protein binding (equilibrium dialysis), human. It is filed as in vitro ADME. The following applies: pH 7.4, dialysis 2 hours at 37° C., read-out: Fraction bound (converted). As for the experimental part:
(§1) Dianorm Teflon dialysis cells (micro 0.2) are used. Each cell consists of a donor (i.e., buffer chamber) and an acceptor chamber (i.e., plasma chamber), separated by an ultrathin semipermeable membrane with a 5 kDa molecular weight cutoff. Stock solutions for each test compound are prepared in DMSO at 1 mM and diluted to a final concentration of 1.0 μM. Aliquots of 200 μL dialysis buffer (100 mM potassium phosphate, pH 7.4) are dispensed into the buffer chamber. Aliquots of 200 μL test compound dialysis solution are dispensed into the plasma chambers. Incubation is carried out for 2 hours under rotation at 37° C. Then, the dialysate is transferred into reaction tubes. The tubes for the buffer fraction contain 0.2 mL acetonitril/water (80/20 volume/volume). Aliquots of 25 μL of the plasma dialysate are transferred into deep well plates and mixed with 25 μL acetonitril/water (80/20 volume/volume), 25 μL buffer, 25 μL calibration solution and 25 μL Internal Standard solution. Protein precipitation is done by adding 200 μL acetonitrile. Aliquots of 50 μL of the buffer dialysate are transferred into deep well plates and mixed with 25 μL blank plasma, 25 μL Internal Standard solution and 200 μL acetonitril. Percent bound is calculated with the formula: % bound=(plasma concentration−buffer concentration/plasma concentration)×100.
For orientation: In equilibrium dialysis only unbound substance equilibrates across the membrane.

The subject of data set [2] is plasma protein. The description is as above. It is filed as in vitro ADME. The conditions noted are these: 1.0 μM, dialysis 2 hours at 37° C. The protocol: as §1
Data set [3] is described as follows: Oral pharmacokinetics in mouse. It is filed as in vivo, BALB/c mice. The following applies: oral dose 20 μmol/kg. The text has this:
The pharmacokinetics of the test compound following single intravenous (IV) or oral (PO) doses were examined in • female BALB/c mice (average weight: 25 g) • male Wistar(Han) rats (average weight: 260 g) • male and female Göttingen Minipigs (average weight: 24 kg) • male beagle dogs (average weight: 15 kg) All non-rodent species were fasted overnight prior to dosing, while mice and rats had food and water available ad libitum. The p.o. dose of the compound was usually administered as suspension in 0.5% Natrosol or as a 0.5% Natrosol/0.015% Tween 80 suspension. For i.v. dosing purposes, the doses were applied as a solution in 0.9% NaCL, or as a solution containing 9.1% HP-beta Cyclodextrin in water.
Blood was collected by venous sampling and soaking of the blood in EDTA coated tubes. Samples were collected for up to 48 h after administration of the test compound. Plasma was then separated by centrifugation (5 min by approximately 9000 g at 4° C.). For determination of the test compound, plasma was transferred into PCR plates. All samples were stored at approximately −20° C. until bioanalytics. The test compound concentrations in plasma were determined by HPLC MS/MS. The lower limit of quantification was between 0.5 nmol/L and 1 nmol/L.

Data set [4] has as its target T1, hERG (Homo sapiens, UniProt Q12809).
T1 construct: expressed in transfected cells
In words: hERG-channel assay (whole-cell patch clamp, HEK293 cells transfected with hERG cDNA). The following applies: human, HEK293 cells stably transfected with hERG cDNA, pH 7.4, read-out: inhibition of hERG-mediated potassium current. It is filed as cell-based. The text has this: (§2) HEK (human embryonic kidney) 293 cells were stably transfected with hERG cDNA. Cells determined for use in patch clamp experiments were cultivated without antibiotic.
(§3) Cells were superfused with a bath solution containing (mM): NaCl (137), KCl (4.0), MgCl2 (1.0), CaCl2 (1.8), Glucose (10), HEPES (10), pH 7.4 with NaOH. Patch pipettes were made from borosilicate glass tubing (Hilgenberg, Malsfeld, Germany) using a horizontal puller (DMZ-Universal Puller, Zeitz-Instrumente, Martinsried, Germany) and filled with pipette solution containing (mM): K-aspartate (130), MgCl2 (5.0), EGTA (5.0), K2ATP (4.0), HEPES (10.0), pH 7.2 with KOH. Resistance of the microelectrodes was in the range between 2 and 5 MΩ.
(§4) Membrane currents were recorded using an EPC-10 patch clamp amplifier (HEKA Electronics, Lambrecht, Germany) and PatchMaster software (HEKA). The current signals were Bessel filtered at 2.5 kHz before being digitized at 5 kHz.
(§5) hERG-mediated membrane currents were recorded at typically 28° C., using the whole-cell configuration of the patch-clamp technique. […] During each inter-pulse interval 4 pulses scaled down by a factor of 0.2 were recorded for a P/n leak subtraction procedure. […] The remaining uncompensated Rs was recorded as well as actual temperature and holding current.
(§6) The concentrations of the test item were applied sequentially on each of the different cells investigated. A steady state level of baseline current was measured for at least 90 s prior to the application of the first test article concentration. […]
(§7) Peak current amplitudes were measured 3 ms after the ramp to +40 mV. […] Residual currents (I/I0) were calculated for each cell as the fraction of actual average peak current and average baseline peak current. Current inhibition was expressed as (1−I/I0)*100%. […]

Data set [5] has as its target T2, hERG-mediated potassium current (Homo sapiens, UniProt Q12809).
T2 construct: expressed in transfected cells
Described as above. It is filed as cell-based. The conditions noted are these: HEK293 cells, whole-cell patch clamp; read-out: IC50, inhibition of hERG-mediated potassium current.
Excerpt: as §2, §3, §4, §5, §6, §7
Background: The patch-clamp technique gives a direct electrical read-out from membranes.

Where [6] appears, read: female, BALB/c, plasma, 20 umol/kg, mean values.

A word on the AUC(0-inf): it is total exposure, with the tail of the curve extrapolated. A word on the Cmax: it is the highest concentration seen after dosing. The term Tmax denotes the time from dosing to the highest level. In general, inhibition refers to the share of the control response that was lost under treatment. As usually defined, the IC50 is the concentration needed to halve the response being measured.

Molecules are shown by their SMILES.

T1 sequence (Q12809 whole entry): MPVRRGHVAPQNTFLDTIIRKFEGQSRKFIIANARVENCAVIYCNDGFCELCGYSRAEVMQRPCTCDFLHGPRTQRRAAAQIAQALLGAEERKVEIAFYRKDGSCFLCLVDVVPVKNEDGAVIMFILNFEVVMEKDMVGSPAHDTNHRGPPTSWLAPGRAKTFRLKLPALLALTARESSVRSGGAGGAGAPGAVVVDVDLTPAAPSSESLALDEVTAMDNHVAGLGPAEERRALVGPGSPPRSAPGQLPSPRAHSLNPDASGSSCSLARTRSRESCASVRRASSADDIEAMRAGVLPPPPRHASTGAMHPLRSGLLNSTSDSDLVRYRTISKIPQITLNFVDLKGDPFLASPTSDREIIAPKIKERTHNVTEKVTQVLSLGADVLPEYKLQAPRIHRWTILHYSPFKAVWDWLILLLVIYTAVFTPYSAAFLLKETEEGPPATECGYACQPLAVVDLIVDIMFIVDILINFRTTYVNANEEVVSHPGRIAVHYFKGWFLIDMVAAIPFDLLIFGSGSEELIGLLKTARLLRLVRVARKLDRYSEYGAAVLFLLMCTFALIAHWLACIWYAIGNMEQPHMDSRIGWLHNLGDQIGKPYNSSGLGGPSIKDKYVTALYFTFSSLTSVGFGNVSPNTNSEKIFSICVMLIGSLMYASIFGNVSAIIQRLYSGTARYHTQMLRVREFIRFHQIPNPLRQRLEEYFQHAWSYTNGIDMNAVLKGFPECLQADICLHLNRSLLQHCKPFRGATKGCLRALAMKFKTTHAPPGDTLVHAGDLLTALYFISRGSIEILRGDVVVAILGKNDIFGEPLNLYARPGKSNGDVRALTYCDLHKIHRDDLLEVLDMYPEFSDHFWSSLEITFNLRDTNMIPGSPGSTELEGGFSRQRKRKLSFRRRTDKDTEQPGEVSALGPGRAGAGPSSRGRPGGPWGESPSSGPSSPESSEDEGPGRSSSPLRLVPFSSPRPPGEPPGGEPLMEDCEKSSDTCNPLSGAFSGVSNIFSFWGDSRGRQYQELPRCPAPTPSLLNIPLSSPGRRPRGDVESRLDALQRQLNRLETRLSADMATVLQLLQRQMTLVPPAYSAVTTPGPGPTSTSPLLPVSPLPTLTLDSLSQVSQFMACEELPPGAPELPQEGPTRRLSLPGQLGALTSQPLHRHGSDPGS
T2 sequence (Q12809 whole entry): as above

As for `CO[C@H]1COCC[C@H]1NC1CCN(C(=O)c2ncnc(NC[C@H]3CCC[C@@H](c4ccc(C)cc4)O3)c2C)CC1` [compound I, (4-((3R,4R)-3-methoxytetrahydro-pyran-4-ylamino)piperidin-1-yl)(5-methyl-6-(((2R,6S)-6-(p-tolyl)tetrahydro-2H-pyran-2-yl)methylamino)pyrimidin-4-yl)methanone], the fraction unbound at 2 h, 1 μM in data set [1] was 0.153. This compound came in with a Fraction unbound in data set [2] of 15.3%. For the same compound, in data set [3] (setting [6]), the AUC(0-inf) was determined as 3.16 µM·h, the highest level (Cmax) was 974 nM and the Tmax is 1 h. This compound also registered an MRTtot in data set [3] (mean values) of 3.99 h. Further, the F in data set [3] (oral bioavailability) is on record as 79%. For the same compound, the inhibition at 10 µM in data set [4] (at 10 μM) turned out to be 12%. Further, in data set [4] (at 30 μM), the inhibition at 30 µM came to 28%. Moreover, the IC50 in data set [5] was greater than 30 µM.
